This passage reports T/C results from PubChem BioAssay AID200 (DTP/NCI, 2004).

“And” between values parts separate entries of the source, which are not always exact repeats. Identical values can stand only once. Inconclusive results and toxic doses are left out. Where a SMILES comes first, the peptide text is derived from it.

The test system of this test is B6C3F1 mice, B16 melanoma ip, median survival T/C. Briefly: NCI In Vivo Anticancer Drug Screen. Data for tumor model B16 Melanoma (intraperitoneal) in B6C3F1 mice. The note with it: endpoint: median survival time, higher = longer survival. The gist of the method: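 Mice bearing transplanted tumor were dosed with compound or vehicle, and survival was recorded. Activity is expressed as the treated-group measurement (T) divided by the vehicle control measurement (C).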

Where [1] appears, read: dose: 2.0 mg/kg/injection, schedule: Q01DX009 (ip), vehicle: saline.
Where [2] appears, read: dose: 12.0 mg/kg/injection, schedule: Q01DX009 (ip), vehicle: saline.
[3] abbreviates: dose: 25.0 mg/kg/injection, schedule: Q01DX009 (ip), vehicle: saline.
The mark [4] stands for this setting: dose: 50.0 mg/kg/injection, schedule: Q01DX009 (ip), vehicle: saline.
The mark [5] stands for this setting: dose: 100.0 mg/kg/injection, schedule: Q01DX009 (ip), vehicle: saline.
Setting [6] is: dose: 50.0 mg/kg/injection, schedule: Q01DX009 (ip), vehicle: saline with Tween-80.
The mark [7] stands for this setting: dose: 100.0 mg/kg/injection, schedule: Q01DX009 (ip), vehicle: saline with Tween-80.
Setting [8] is: dose: 0.78 mg/kg/injection, schedule: Q01DX009 (ip), vehicle: saline.
[9] abbreviates: dose: 1.56 mg/kg/injection, schedule: Q01DX009 (ip), vehicle: saline.
Setting [10] is: dose: 3.13 mg/kg/injection, schedule: Q01DX009 (ip), vehicle: saline.
The mark [11] stands for this setting: dose: 6.25 mg/kg/injection, schedule: Q01DX009 (ip), vehicle: saline.
Setting [12] is: dose: 12.5 mg/kg/injection, schedule: Q01DX009 (ip), vehicle: saline.
[13] abbreviates: dose: 6.25 mg/kg/injection, schedule: Q01DX009 (ip), vehicle: Klucel (hydroxypropylcellulose) (HPC).
[14] abbreviates: dose: 12.5 mg/kg/injection, schedule: Q01DX009 (ip), vehicle: Klucel (hydroxypropylcellulose) (HPC).
The mark [15] stands for this setting: dose: 25.0 mg/kg/injection, schedule: Q01DX009 (ip), vehicle: Klucel (hydroxypropylcellulose) (HPC).
The mark [16] stands for this setting: dose: 100.0 mg/kg/injection, schedule: Q01DX009 (ip), vehicle: Klucel (hydroxypropylcellulose) (HPC).
[17] abbreviates: dose: 12.5 mg/kg/injection, schedule: Q01DX009 (ip), vehicle: saline with Tween-80.
Where [18] appears, read: dose: 25.0 mg/kg/injection, schedule: Q01DX009 (ip), vehicle: saline with Tween-80.

As for `O=C(NC(Cc1ccc(I)cc1)C(=O)O)c1ccc(Br)cc1` (stereo not drawn), the T/C (dose: 25.0 mg/kg/injection, schedule: Q01DX009 (ip), vehicle: sodium bicarbonate) was 96 % of control; the T/C (dose: 50.0 mg/kg/injection, schedule: Q01DX009 (ip), vehicle: sodium bicarbonate) was 104 % of control; the T/C (dose: 100.0 mg/kg/injection, schedule: Q01DX009 (ip), vehicle: sodium bicarbonate) is 101 % of control; the T/C (dose: 200.0 mg/kg/injection, schedule: Q01DX009 (ip), vehicle: sodium bicarbonate) was 97 % of control.
On to `COc1cccc2c1C(=O)c1c(O)c3c(c(O)c1C2=O)C[C@@](O)(/C(CO)=N/NC(=O)c1ccc(Cl)c(Cl)c1)C[C@@H]3OC1CC(N)C(O)C(C)O1` (stereo partly drawn), for which the T/C reads like this: (dose: 1.0 mg/kg/injection, schedule: Q01DX009 (ip), vehicle: saline) 188 % of control; under setting [1], 190 % of control; (dose: 4.0 mg/kg/injection, schedule: Q01DX009 (ip), vehicle: saline) 250 % of control; (dose: 8.0 mg/kg/injection, schedule: Q01DX009 (ip), vehicle: saline) 267 % of control; (dose: 16.0 mg/kg/injection, schedule: Q01DX009 (ip), vehicle: saline) 357 % of control.
Turning to `CCN(CC)CCOCCO`, the T/C by setting is: under setting [2], 105 % of control; under setting [3], 116 % of control; under setting [4], 98 % of control; under setting [5], 90 % of control.
For the molecule `Oc1ccc2ccccc2c1N=Nc1ccc(F)cc1`, the T/C is, setting by setting: under setting [6], 111 % of control and 113 % of control; under setting [7], 120 % of control; (dose: 200.0 mg/kg/injection, schedule: Q01DX009 (ip), vehicle: saline with Tween-80) 109 % of control and 123 % of control; (dose: 400.0 mg/kg/injection, schedule: Q01DX009 (ip), vehicle: saline with Tween-80) 113 % of control and 106 % of control.
Turning to `Cc1ncc(O)c(CO)c1O`, the T/C by setting is: under setting [8], 102 % of control; under setting [9], 102 % of control; under setting [10], 99 % of control; under setting [11], 105 % of control; under setting [12], 101 % of control; under setting [3], 91 % of control. Besides, the T/C under setting [4] was 96 % of control.
With `CCc1ccc(C2=C(O)C(=O)C(c3ccccc3)=C(O)C2=O)cc1`, the T/C is 112 % of control (dose: 3.12 mg/kg/injection, schedule: Q01DX009 (ip), vehicle: Klucel (hydroxypropylcellulose) (HPC)); 106 % of control under setting [13]; 108 % of control under setting [14]; 114 % of control under setting [15]; 114 % of control (dose: 50.0 mg/kg/injection, schedule: Q01DX009 (ip), vehicle: Klucel (hydroxypropylcellulose) (HPC)); 108 % of control under setting [16].
With `CC1=CC(=Nc2ccc(N(CCCl)CCCl)cc2)C=C(C)C1=O`, the T/C under setting [13] is 150 % of control; the T/C under setting [14] was 163 % of control and 176 % of control; the T/C under setting [15] is 186 % of control.
Turning to `NC(N)=O`, the T/C runs as follows: under setting [4], 99 % of control; under setting [5], 100 % of control; (dose: 200.0 mg/kg/injection, schedule: Q01DX009 (ip), vehicle: saline) 106 % of control; (dose: 400.0 mg/kg/injection, schedule: Q01DX009 (ip), vehicle: saline) 95 % of control.
Turning to `N#Cc1ccc(NC(=O)Nc2nncs2)cc1`, the T/C by setting is: under setting [17], 120 % of control and 105 % of control; under setting [18], 118 % of control and 107 % of control; under setting [6], 111 % of control.
As to `CCOC(=O)NC1=C(N2CC2)C(=O)C(NC(=O)OCC)=C(N2CC2)C1=O`, the T/C runs as follows: (dose: 0.25 mg/kg/injection, schedule: Q01DX009 (ip), vehicle: saline) 97 % of control; (dose: 0.5 mg/kg/injection, schedule: Q01DX009 (ip), vehicle: saline) 92 % of control; under setting [1], 115 % of control.
Take `OC(CN1CCCC2CCCCC21)c1cc2ccccc2c2ccccc12` (stereo not drawn): the T/C reads like this: under setting [18], 100 % of control; under setting [6], 100 % of control; under setting [7], 96 % of control and 97 % of control.
For `CC(C)CCC(=O)c1ccoc1`, the T/C runs as follows: (dose: 0.12 mg/kg/injection, schedule: Q03HX027 (ip), vehicle: saline with Tween-80) 100 % of control; (dose: 0.25 mg/kg/injection, schedule: Q01DX009 (ip), vehicle: saline with Tween-80) 100 % of control; (dose: 0.25 mg/kg/injection, schedule: Q03HX027 (ip), vehicle: saline with Tween-80) 98 % of control; (dose: 0.5 mg/kg/injection, schedule: Q01DX009 (ip), vehicle: saline with Tween-80) 100 % of control; (dose: 0.5 mg/kg/injection, schedule: Q03HX027 (ip), vehicle: saline with Tween-80) 107 % of control; (dose: 1.0 mg/kg/injection, schedule: Q01DX009 (ip), vehicle: saline with Tween-80) 102 % of control. The T/C (dose: 1.0 mg/kg/injection, schedule: Q03HX027 (ip), vehicle: saline with Tween-80) was 88 % of control; the T/C (dose: 2.0 mg/kg/injection, schedule: Q01DX009 (ip), vehicle: saline with Tween-80) is 102 % of control; the T/C (dose: 2.0 mg/kg/injection, schedule: Q03HX027 (ip), vehicle: saline with Tween-80) was 107 % of control.
As for `CCOC(=O)N1CCN(CCCCCOc2ccc(CC(C)(C)C)cc2Cl)CC1`, the T/C is 109 % of control under setting [10], 121 % of control under setting [11], 112 % of control under setting [12] and 101 % of control under setting [3].
Consider `CC[C@@H](C)[C@H]([C@H](CC(=O)N1CCC[C@@H]1[C@@H](OC)[C@H](C)C(=O)N[C@H](Cc1ccccc1)c1nccs1)OC)N(C)C(=O)[C@H](NC(=O)[C@@H](C(C)C)N(C)C)C(C)C`, for which the T/C was 171 % of control (dose: 2.4 micrograms/kg/injection, schedule: Q01DX009 (ip), vehicle: saline + alcohol); 205 % of control (dose: 4.0 micrograms/kg/injection, schedule: Q01DX009 (ip), vehicle: saline + alcohol); 182 % of control (dose: 6.67 micrograms/kg/injection, schedule: Q01DX009 (ip), vehicle: saline + alcohol); 238 % of control (dose: 11.11 micrograms/kg/injection, schedule: Q01DX009 (ip), vehicle: saline + alcohol).
On to `O=C(C1CO1)C(Cl)(Cl)Cl` (stereo not drawn), for which the T/C runs as follows: under setting [2], 92 % of control; under setting [3], 106 % of control.
As to `CC(C)n1cnc2c(Cl)ncnc21`, the T/C by setting is: under setting [18], 88 % of control; under setting [6], 104 % of control; under setting [7], 87 % of control.
With `CCSc1ncnc2c1ncn2C1OC(CO)C(O)C1O` (stereo not drawn), the T/C under setting [6] was 93 % of control and the T/C under setting [7] was 95 % of control.
For `NC(CNc1ccc(O)cc1)C(=O)O` (stereo not drawn), the T/C runs as follows: (dose: 75.0 mg/kg/injection, schedule: Q01DX009 (ip), vehicle: saline) 111 % of control; under setting [5], 103 % of control; (dose: 150.0 mg/kg/injection, schedule: Q01DX009 (ip), vehicle: saline) 101 % of control.
Regarding `FC(F)(F)c1ccc2c(c1)N(CCCN1CCN(CCN3CCCCC3)CC1)c1ccccc1S2`, the T/C under setting [8] was 94 % of control; the T/C under setting [9] is 109 % of control and 89 % of control; the T/C (dose: 3.12 mg/kg/injection, schedule: Q01DX009 (ip), vehicle: saline) was 118 % of control and 99 % of control; the T/C under setting [11] is 99 % of control and 101 % of control; the T/C under setting [12] was 98 % of control; the T/C under setting [3] was 94 % of control.
As to `CSc1ccc2c(c1)C(N1CCN(C)CC1)Cc1ccccc1S2` (stereo not drawn), the T/C reads like this: (dose: 1.56 mg/kg/injection, schedule: Q01DX009 (ip), vehicle: saline with Tween-80) 105 % of control; (dose: 3.12 mg/kg/injection, schedule: Q01DX009 (ip), vehicle: saline with Tween-80) 108 % of control; (dose: 6.25 mg/kg/injection, schedule: Q01DX009 (ip), vehicle: saline with Tween-80) 105 % of control; under setting [17], 98 % of control; under setting [18], 94 % of control; under setting [6], 88 % of control.
For the molecule `CCC(=O)OCC1OC(n2cnc3c(=S)nc(N)[nH]c32)C(OC(=O)CC)C1OC(=O)CC` (stereo not drawn), under setting [15], the T/C was 86 % of control.
Consider `CCCC(NC(=O)CNC(=O)OCc1ccccc1)C(=O)O` (stereo not drawn) (HELM PEPTIDE1{[O=C(OCc1ccccc1)[*:2]].G.[CCCC(N[*:1])C(=O)O]}$$$$V2.0), for which the T/C under setting [16] was 104 % of control and the T/C (dose: 200.0 mg/kg/injection, schedule: Q01DX009 (ip), vehicle: Klucel (hydroxypropylcellulose) (HPC)) was 92 % of control.
